From PubChem BioAssay AID248 (DTP/NCI, 2004)
Several values for one entry are separate records, joined by “and”; a condition that tells them apart may be missing. Identical values can stand only once. Toxic doses and inconclusive results are not listed.

System: L1210 leukemia ip in BDF1 mice, survival T/C
Test: NCI In Vivo Anticancer Drug Screen. Data for tumor model L1210 Leukemia (intraperitoneal) in B6D2F1 (BDF1) mice
Conditions: endpoint: mean survival time, higher = longer survival
Procedure, shortened: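 Antitumor effect is assessed in tumor-bearing animals. Survival in the compound arm is compared with a vehicle-dosed control arm and expressed as their quotient.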

[1] = dose: 100.0 mg/kg/injection, schedule: Q01DX001 (ip), vehicle: saline with Tween-80
[2] = dose: 100.0 mg/kg/injection, schedule: Q01DX009 (ip), vehicle: saline with Tween-80
[3] = dose: 100.0 mg/kg/injection, schedule: Q04DX003 (ip), vehicle: saline with Tween-80
[4] = dose: 200.0 mg/kg/injection, schedule: Q01DX001 (ip), vehicle: saline with Tween-80
[5] = dose: 200.0 mg/kg/injection, schedule: Q01DX009 (ip), vehicle: saline with Tween-80
[6] = dose: 200.0 mg/kg/injection, schedule: Q04DX003 (ip), vehicle: saline with Tween-80
[7] = dose: 400.0 mg/kg/injection, schedule: Q01DX001 (ip), vehicle: saline with Tween-80
[8] = dose: 400.0 mg/kg/injection, schedule: Q04DX003 (ip), vehicle: saline with Tween-80
[9] = dose: 50.0 mg/kg/injection, schedule: Q01DX009 (ip), vehicle: Klucel (hydroxypropylcellulose) (HPC)
[10] = dose: 100.0 mg/kg/injection, schedule: Q04DX003 (ip), vehicle: Klucel (hydroxypropylcellulose) (HPC)
[11] = dose: 200.0 mg/kg/injection, schedule: Q01DX009 (ip), vehicle: Klucel (hydroxypropylcellulose) (HPC)
[12] = dose: 400.0 mg/kg/injection, schedule: Q04DX003 (ip), vehicle: Klucel (hydroxypropylcellulose) (HPC)
[13] = dose: 75.0 mg/kg/injection, schedule: Q01DX001 (ip), vehicle: saline
[14] = dose: 150.0 mg/kg/injection, schedule: Q01DX001 (ip), vehicle: saline
[15] = dose: 100.0 mg/kg/injection, schedule: Q01DX001 (ip), vehicle: carboxymethylcellulose (CMC)
[16] = dose: 200.0 mg/kg/injection, schedule: Q01DX001 (ip), vehicle: carboxymethylcellulose (CMC)
[17] = dose: 400.0 mg/kg/injection, schedule: Q01DX001 (ip), vehicle: carboxymethylcellulose (CMC)
[18] = dose: 200.0 mg/kg/injection, schedule: Q04DX002 (ip), vehicle: Klucel (hydroxypropylcellulose) (HPC)
[19] = dose: 400.0 mg/kg/injection, schedule: Q04DX002 (ip), vehicle: Klucel (hydroxypropylcellulose) (HPC)
[20] = dose: 50.0 mg/kg/injection, schedule: Q01DX009 (ip), vehicle: saline with Tween-80
[21] = dose: 25.0 mg/kg/injection, schedule: Q01DX009 (ip), vehicle: saline with Tween-80

For CCCN(CCC)/N=N/c1nc[nH]c1C(N)=O, the T/C [1] was 95 % of control, the T/C [2] was 97 % of control and the T/C [3] was 101 % of control. For the same compound, the T/C [4] was 98 % of control, the T/C [5] was 106 % of control and the T/C [6] was 104 % of control. The T/C [7] was 113 % of control and the T/C [8] was 112 % of control.

C[n+]1ccc2cc(-c3ccccc3)c3ccccc3c2c1 was tested, and the T/C (dose: 1.56 mg/kg/injection, schedule: Q01DX009 (ip), vehicle: water) was 102 % of control, the T/C (dose: 3.12 mg/kg/injection, schedule: Q01DX009 (ip), vehicle: water) was 104 % of control and the T/C (dose: 6.25 mg/kg/injection, schedule: Q01DX009 (ip), vehicle: water) was 104 % of control. For the same compound, the T/C (dose: 6.25 mg/kg/injection, schedule: Q04DX003 (ip), vehicle: water) was 98 % of control, the T/C (dose: 12.5 mg/kg/injection, schedule: Q01DX009 (ip), vehicle: water) was 95 % of control and the T/C (dose: 12.5 mg/kg/injection, schedule: Q04DX003 (ip), vehicle: water) was 103 % of control. For the same compound, the T/C (dose: 25.0 mg/kg/injection, schedule: Q04DX003 (ip), vehicle: water) was 88 % of control.

For O=C(NCCNC(c1ccccc1)(c1ccccc1)c1ccccc1)C(F)(F)F, the T/C [9] was 105 % of control, the T/C (dose: 100.0 mg/kg/injection, schedule: Q01DX009 (ip), vehicle: Klucel (hydroxypropylcellulose) (HPC)) was 100 % of control and the T/C [10] was 91 % of control. For the same compound, the T/C [11] was 96 % of control, the T/C (dose: 200.0 mg/kg/injection, schedule: Q04DX003 (ip), vehicle: Klucel (hydroxypropylcellulose) (HPC)) was 100 % of control and the T/C [12] was 93 % of control.

COC(=O)C(Br)(Br)C(=O)OC was tested, and the T/C (dose: 12.5 mg/kg/injection, schedule: Q04DX002 (ip), vehicle: saline with Tween-80) was 97 % of control, the T/C (dose: 25.0 mg/kg/injection, schedule: Q04DX002 (ip), vehicle: saline with Tween-80) was 105 % of control and the T/C (dose: 50.0 mg/kg/injection, schedule: Q04DX002 (ip), vehicle: saline with Tween-80) was 101 % of control.

In the case of COc1ccc(C(O)C(C)N)cc1 (configuration not stated), the T/C [13] is reported as 96 % of control and the T/C [14] is reported as 96 % of control.

For O=c1cc(N=Nc2ccc(O)cc2)[nH]c(=O)[nH]1, the T/C (dose: 100.0 mg/kg/injection, schedule: Q01DX009 (ip), vehicle: water) was 94 % of control, the T/C (dose: 100.0 mg/kg/injection, schedule: Q04DX003 (ip), vehicle: water) was 103 % of control and the T/C (dose: 200.0 mg/kg/injection, schedule: Q01DX009 (ip), vehicle: water) was 94 % of control. For the same compound, the T/C (dose: 200.0 mg/kg/injection, schedule: Q04DX003 (ip), vehicle: water) was 103 % of control, the T/C (dose: 400.0 mg/kg/injection, schedule: Q01DX009 (ip), vehicle: water) was 92 % of control and the T/C (dose: 400.0 mg/kg/injection, schedule: Q04DX003 (ip), vehicle: water) was 104 % of control.

For CC(Br)(C(CC(=O)C1CC1)c1ccccc1)[N+](=O)[O-] (configuration not stated), the T/C (dose: 25.0 mg/kg/injection, schedule: Q01DX009 (ip), vehicle: other) was 93 % of control, the T/C (dose: 25.0 mg/kg/injection, schedule: Q04DX003 (ip), vehicle: other) was 100 % of control and the T/C (dose: 50.0 mg/kg/injection, schedule: Q01DX001 (ip), vehicle: carboxymethylcellulose (CMC)) was 108 % of control. The T/C (dose: 50.0 mg/kg/injection, schedule: Q01DX009 (ip), vehicle: other) was 89 % of control and 90 % of control, the T/C (dose: 50.0 mg/kg/injection, schedule: Q04DX003 (ip), vehicle: other) was 96 % of control and the T/C [15] was 90 % of control. For the same compound, the T/C (dose: 100.0 mg/kg/injection, schedule: Q01DX009 (ip), vehicle: other) was 91 % of control, the T/C (dose: 100.0 mg/kg/injection, schedule: Q04DX003 (ip), vehicle: other) was 93 % of control and 103 % of control and the T/C [16] was 92 % of control. The T/C [17] was 95 % of control.

With O=C(Cc1ccccc1)NC1=C(Cl)C(=O)c2ccccc2C1=O the T/C [3] was 89 % of control, the T/C [6] was 101 % of control and the T/C [8] was 88 % of control.

CCCCCCCCSCCCCCCCCCCCSCCCCCCCC was tested, and the T/C (dose: 100.0 mg/kg/injection, schedule: Q01DX001 (ip), vehicle: Klucel (hydroxypropylcellulose) (HPC)) was 102 % of control and the T/C (dose: 200.0 mg/kg/injection, schedule: Q01DX001 (ip), vehicle: Klucel (hydroxypropylcellulose) (HPC)) was 92 % of control.

CCCCOC(=O)CNC(=O)c1ccc([N+](=O)[O-])s1 was tested, and the T/C (dose: 50.0 mg/kg/injection, schedule: Q01DX005 (ip), vehicle: saline) was 102 % of control, the T/C (dose: 100.0 mg/kg/injection, schedule: Q01DX005 (ip), vehicle: saline) was 98 % of control and the T/C (dose: 400.0 mg/kg/injection, schedule: Q01DX005 (ip), vehicle: saline) was 91 % of control.

COc1cc(NS(C)(=O)=O)ccc1Nc1c2ccccc2nc2cc(C(F)(F)F)c(N)cc12 was tested, and the T/C [9] was 113 % of control and 123 % of control, the T/C (dose: 50.0 mg/kg/injection, schedule: Q04DX003 (ip), vehicle: Klucel (hydroxypropylcellulose) (HPC)) was 118 % of control and the T/C [10] was 123 % of control. The T/C [11] was 153 % of control and 174 % of control, the T/C [18] was 162 % of control and the T/C [19] was 179 % of control. For the same compound, the T/C [12] was 112 % of control.

In the case of Nc1ccc2sc3ccccc3c2c1, the T/C [20] is reported as 106 % of control, the T/C [2] is reported as 105 % of control and the T/C [3] is reported as 95 % of control. The T/C [6] was 104 % of control.

With COc1ccc(Cl)cc1NC(=O)Oc1ccc(SC)c(C)c1 the T/C [1] was 95 % of control, the T/C [2] was 95 % of control and the T/C (dose: 100.0 mg/kg/injection, schedule: Q04DX002 (ip), vehicle: saline with Tween-80) was 97 % of control and 98 % of control. For the same compound, the T/C [4] was 91 % of control, the T/C [5] was 98 % of control and the T/C (dose: 200.0 mg/kg/injection, schedule: Q04DX002 (ip), vehicle: saline with Tween-80) was 98 % of control and 89 % of control. For the same compound, the T/C [7] was 91 % of control, the T/C (dose: 400.0 mg/kg/injection, schedule: Q01DX009 (ip), vehicle: saline with Tween-80) was 90 % of control and the T/C (dose: 400.0 mg/kg/injection, schedule: Q04DX002 (ip), vehicle: saline with Tween-80) was 92 % of control and 98 % of control.

In the case of Cc1ccccc1OCc1nc(-c2ccc(N(CCCl)CCCl)cc2)cs1, the T/C [15] is reported as 101 % of control, the T/C [16] is reported as 113 % of control and the T/C [17] is reported as 104 % of control.

In the case of CN(C)C(=S)SCSC(=S)N(C)C, the T/C (dose: 25.0 mg/kg/injection, schedule: Q04DX003 (ip), vehicle: saline with Tween-80) is reported as 100 % of control, the T/C (dose: 50.0 mg/kg/injection, schedule: Q04DX003 (ip), vehicle: saline with Tween-80) is reported as 91 % of control and the T/C (dose: 100.0 mg/kg/injection, schedule: Q04DX002 (ip), vehicle: Klucel (hydroxypropylcellulose) (HPC)) is reported as 97 % of control. The T/C [3] was 91 % of control, the T/C [18] was 93 % of control and the T/C [19] was 93 % of control.

In the case of O=C(O)c1cc(S(=O)(=O)F)c(Cl)cc1Cl, the T/C [21] is reported as 102 % of control, the T/C [20] is reported as 103 % of control and the T/C [2] is reported as 100 % of control and 101 % of control.

In the case of C=C(Br)CNC(=O)NCC, the T/C [21] is reported as 94 % of control, the T/C [20] is reported as 91 % of control and the T/C [2] is reported as 105 % of control. For the same compound, the T/C [3] was 97 % of control.

In the case of CCCCCCCC/C=C/CCCCCCCCC1=NCCN1CCO, the T/C (dose: 2.5 mg/kg/injection, schedule: Q01DX009 (ip), vehicle: saline) is reported as 104 % of control, the T/C (dose: 5.0 mg/kg/injection, schedule: Q01DX009 (ip), vehicle: saline) is reported as 93 % of control and the T/C (dose: 10.0 mg/kg/injection, schedule: Q01DX001 (ip), vehicle: saline) is reported as 90 % of control. For the same compound, the T/C (dose: 10.0 mg/kg/injection, schedule: Q01DX009 (ip), vehicle: saline) was 104 % of control and the T/C (dose: 20.0 mg/kg/injection, schedule: Q01DX001 (ip), vehicle: saline) was 92 % of control.

In the case of CC(C)(C)N1CCC1CN (configuration not stated), the T/C [13] is reported as 104 % of control, the T/C [14] is reported as 102 % of control and the T/C (dose: 300.0 mg/kg/injection, schedule: Q01DX001 (ip), vehicle: saline) is reported as 102 % of control.

For O=C(/C=C/c1ccccc1)C(Cl)C(Cl)c1ccccc1 (configuration not stated), the T/C (dose: 50.0 mg/kg/injection, schedule: Q01DX009 (sc), vehicle: olive oil, sesame oil, peanut oil) was 101 % of control, the T/C (dose: 100.0 mg/kg/injection, schedule: Q01DX009 (sc), vehicle: olive oil, sesame oil, peanut oil) was 101 % of control and the T/C (dose: 200.0 mg/kg/injection, schedule: Q01DX009 (sc), vehicle: olive oil, sesame oil, peanut oil) was 97 % of control.
